Laboratory results: patent publication US6610860B2, “C7 ester substituted taxanes” (FSU Research Foundation, Inc., priority 2000, dated 2003)

Tested on: HCT116 cells
Test: In vitro cytotoxicity measured by the cell colony formation assay
Type: cell-based
Settings: 72 h drug incubation, colonies counted after 7 days, ID50 = drug concentration producing 50% inhibition of colony formation, read-out: IN VITRO ID 50 (nm) HCT116
Procedure: In Vitro Cytotoxicity Measured by the Cell Colony Formation Assay
Four hundred cells (HCT116) were plated in 60 mm Petri dishes containing 2.7 mL of medium (modified McCoy's 5a medium containing 10% fetal bovine serum and 100 units/mL penicillin and 100 µg/mL streptomycin). The cells were incubated in a CO2 incubator at 37° C. for 5 h for attachment to the bottom of Petri dishes. The compounds identified in Example 2 were made up fresh in medium at ten times the final concentration, and then 0.3 mL of this stock solution was added to the 2.7 mL of medium in the dish. The cells were then incubated with drugs for 72 h at 37° C. At the end of incubation the drug-containing media were decanted, the dishes were rinsed with 4 mL of Hank's Balance Salt Solution (HBSS), 5 mL of fresh medium was added, and the dishes were returned to the incubator for colony formation. The cell colonies were counted using a colony counter after incubation for 7 days.

CC(=O)O[C@H]1C(=O)[C@@]2(C)[C@H]([C@H](OC(=O)c3ccccc3)[C@]3(O)C[C@H](OC(=O)[C@H](O)[C@@H](NC(=O)c4ccccc4)c4ccccc4)C(C)=C1C3(C)C)[C@]1(OC(C)=O)CO[C@@H]1C[C@@H]2O [taxol]
IC50: 2.1 nM
